The source of these data is patent publication US11041009B2, “Glucose responsive insulin comprising a tri-valent sugar cluster for treatment of diabetes” (Merck Sharp & Dohme Corp., priority 2017, dated 2021).

For test [1], the target named is human insulin receptor type B (IR(B)) (Homo sapiens, UniProt P06213). As to the kind of experiment: Insulin Receptor Binding Assay, scintillation proximity assay with cell membranes (Method D). (In a scintillation proximity assay essentially only radioactivity close to the scintillant gives light.)
Another test deals with T1, human IR(B) (Homo sapiens, UniProt P06213).
T1 construct: expressed in transfected cells
In words: Insulin Receptor Phosphorylation Assay (MSD pIR assay; Methods A and B). The following applies: Method B: IR phosphorylation assay, 384-well with automated liquid dispense; CHO cells expressing human IR(B); read-out: IR Activation IP†. Format: cell-based. On the procedure:
Insulin Receptor Phosphorylation Assays were performed as follows.
Cells were harvested and frozen in aliquots for use in the MSD pIR assay. Briefly, the frozen cells were plated in either 96-well (40,000 cells/well, Method A) or 384-well (10,000 cells/well, Method B) clear tissue culture plates and allowed to recover. IOC molecules at the appropriate concentrations were added and the cells incubated for 8 min at 37° C. The media was aspirated and chilled MSD cell lysis buffer was added as per MSD kit instructions. The cells were lysed on ice for 40 min and the lysate then mixed for 10 minutes at room temperature. The lysate was transferred to the MSD kit pIR detection plates. The remainder of the assay was carried out following the MSD kit recommended protocol.

Test [2] addresses T2, Human macrophage mannose receptor 1 (MRC1) (Homo sapiens, UniProt P22897).
T2 sequence (P22897 19-1456): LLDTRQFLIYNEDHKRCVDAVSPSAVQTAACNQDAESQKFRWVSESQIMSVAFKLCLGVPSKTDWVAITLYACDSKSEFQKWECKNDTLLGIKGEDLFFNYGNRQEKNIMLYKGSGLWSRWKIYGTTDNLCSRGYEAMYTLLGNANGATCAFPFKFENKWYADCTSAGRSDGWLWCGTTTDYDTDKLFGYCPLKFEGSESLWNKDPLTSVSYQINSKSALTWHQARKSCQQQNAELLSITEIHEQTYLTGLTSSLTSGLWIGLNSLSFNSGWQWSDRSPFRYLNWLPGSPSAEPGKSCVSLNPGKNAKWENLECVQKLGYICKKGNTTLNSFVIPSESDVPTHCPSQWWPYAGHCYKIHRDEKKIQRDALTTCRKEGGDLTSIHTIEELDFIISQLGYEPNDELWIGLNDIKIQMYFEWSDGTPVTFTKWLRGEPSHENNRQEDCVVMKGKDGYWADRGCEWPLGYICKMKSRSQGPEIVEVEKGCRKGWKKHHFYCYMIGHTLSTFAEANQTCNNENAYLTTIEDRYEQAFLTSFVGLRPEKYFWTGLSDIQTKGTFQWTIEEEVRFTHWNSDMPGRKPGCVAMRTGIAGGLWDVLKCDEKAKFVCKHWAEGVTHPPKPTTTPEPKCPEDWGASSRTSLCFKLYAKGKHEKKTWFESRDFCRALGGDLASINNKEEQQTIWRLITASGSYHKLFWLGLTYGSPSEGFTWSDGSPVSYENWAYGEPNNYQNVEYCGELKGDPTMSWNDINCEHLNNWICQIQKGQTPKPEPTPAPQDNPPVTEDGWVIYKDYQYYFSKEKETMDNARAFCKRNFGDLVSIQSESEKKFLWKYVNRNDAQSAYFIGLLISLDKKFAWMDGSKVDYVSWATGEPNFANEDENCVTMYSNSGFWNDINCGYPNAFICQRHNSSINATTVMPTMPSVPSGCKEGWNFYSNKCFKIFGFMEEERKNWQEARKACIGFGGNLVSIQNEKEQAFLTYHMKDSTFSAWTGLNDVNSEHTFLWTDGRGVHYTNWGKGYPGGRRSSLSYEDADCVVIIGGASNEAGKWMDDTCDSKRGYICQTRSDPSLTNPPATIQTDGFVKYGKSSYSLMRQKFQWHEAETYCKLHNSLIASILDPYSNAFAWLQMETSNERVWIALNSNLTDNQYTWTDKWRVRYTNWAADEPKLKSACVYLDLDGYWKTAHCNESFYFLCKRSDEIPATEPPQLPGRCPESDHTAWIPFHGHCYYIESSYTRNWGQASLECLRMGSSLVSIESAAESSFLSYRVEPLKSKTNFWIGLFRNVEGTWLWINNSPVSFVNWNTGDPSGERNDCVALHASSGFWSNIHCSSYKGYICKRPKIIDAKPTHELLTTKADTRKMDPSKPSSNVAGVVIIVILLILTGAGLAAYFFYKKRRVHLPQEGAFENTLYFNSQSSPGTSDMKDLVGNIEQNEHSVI
As to the kind of experiment: MRC1 competition binding assay with Eu-labeled mannosylated-BSA (Methods E and F). As to conditions: Method F: MRC1 assay in a 384-well plate; read-out: MRC1 Binding IP‡. On the procedure:
Human macrophage mannose receptor 1 (MRC1) Binding Assays were performed as follows.
The competition binding assay for MRC1 utilized a ligand, mannosylated-BSA labeled with the DELFIA Eu-N1-ITC reagent, as reported in the literature. Assay was performed either in a 96-well plate with 100 μL well volume (Method E) or in a 384-well plate with 25 μL well volume (Method F). […] The antibody was incubated in the plate for 1 hr at room temperature with shaking. The plate was washed with wash buffer 3-5 times followed by addition of MRC1 (2 ng/μl final concentration) in PBS containing 1% stabilizer BSA. The plate was incubated at room temperature with gentle shaking for 1 hr. The plate was washed three times with wash buffer. The IOC molecules in 12.5 μL (or 50 μL depending on plate format) buffer at appropriate concentrations were added followed by 12.5 μL (or 50 μL) Eu-mannosylated-BSA (0.1 nM final concentration) in 50 mM Tris, pH 7.5 containing 100 mM NaCl, 5 mM CaCl2, 1 mM MgCl2 and 0.2% stabilizer BSA. The plate was incubated for 2 hrs at room temperature with shaking followed by washing three times with wash buffer. Perkin Elmer Eu-inducer reagent was added and incubated for 30 min at room temperature prior to detection of the Eu signal (Excitation=340 nm: Emission=615 nm).

Chain of human insulin receptor type B (IR(B)) (P06213 28-758 limits assumed): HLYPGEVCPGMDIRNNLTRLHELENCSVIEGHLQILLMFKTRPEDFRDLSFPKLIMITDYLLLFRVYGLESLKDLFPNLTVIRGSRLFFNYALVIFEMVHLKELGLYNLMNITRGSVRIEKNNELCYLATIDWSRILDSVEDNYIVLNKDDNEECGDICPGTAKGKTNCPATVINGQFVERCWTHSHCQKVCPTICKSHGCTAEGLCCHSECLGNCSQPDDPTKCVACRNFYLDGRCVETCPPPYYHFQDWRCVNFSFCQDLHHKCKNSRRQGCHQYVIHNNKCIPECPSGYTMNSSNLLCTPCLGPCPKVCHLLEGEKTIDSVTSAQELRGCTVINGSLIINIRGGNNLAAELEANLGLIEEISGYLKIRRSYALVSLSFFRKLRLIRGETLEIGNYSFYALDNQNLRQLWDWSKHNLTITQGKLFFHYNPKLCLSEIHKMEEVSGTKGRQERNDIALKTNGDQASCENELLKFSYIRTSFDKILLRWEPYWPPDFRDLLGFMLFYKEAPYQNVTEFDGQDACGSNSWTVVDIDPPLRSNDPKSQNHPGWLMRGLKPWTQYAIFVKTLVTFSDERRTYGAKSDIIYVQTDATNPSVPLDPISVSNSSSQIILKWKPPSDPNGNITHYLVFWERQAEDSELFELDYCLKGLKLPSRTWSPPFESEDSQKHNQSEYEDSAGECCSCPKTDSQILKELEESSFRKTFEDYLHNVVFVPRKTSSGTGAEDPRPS
Chain of human insulin receptor type B (IR(B)) (P06213 763-1382 partner limits assumed): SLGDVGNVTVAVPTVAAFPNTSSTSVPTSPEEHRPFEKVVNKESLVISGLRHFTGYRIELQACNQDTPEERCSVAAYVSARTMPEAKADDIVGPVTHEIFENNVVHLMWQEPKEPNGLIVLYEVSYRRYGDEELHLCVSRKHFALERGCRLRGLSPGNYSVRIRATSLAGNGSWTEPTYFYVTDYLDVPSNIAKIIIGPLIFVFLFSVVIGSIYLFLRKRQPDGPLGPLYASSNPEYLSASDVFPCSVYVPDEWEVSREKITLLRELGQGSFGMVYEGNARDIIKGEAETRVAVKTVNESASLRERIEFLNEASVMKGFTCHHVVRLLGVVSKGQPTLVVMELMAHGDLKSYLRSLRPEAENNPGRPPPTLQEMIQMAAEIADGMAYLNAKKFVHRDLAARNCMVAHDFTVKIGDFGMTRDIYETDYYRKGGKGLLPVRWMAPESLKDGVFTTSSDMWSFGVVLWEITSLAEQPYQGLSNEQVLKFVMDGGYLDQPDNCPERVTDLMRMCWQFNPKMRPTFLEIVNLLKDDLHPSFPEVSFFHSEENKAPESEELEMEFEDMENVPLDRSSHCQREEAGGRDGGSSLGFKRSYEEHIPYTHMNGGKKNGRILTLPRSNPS
T1 sequence (P06213 28-758 limits assumed): as the sequence (P06213 28-758 limits assumed) above
T1 sequence (P06213 763-1382 partner limits assumed): as the sequence (P06213 763-1382 partner limits assumed) above

For `CC[C@H](C)[C@H](NC(=O)CN)C(=O)N[C@H](C(=O)N[C@@H](CCC(=O)O)C(=O)N[C@@H](CCC(N)=O)C(=O)N[C@H]1CSSC[C@@H]2NC(=O)[C@H]([C@@H](C)CC)NC(=O)[C@H](CO)NC(=O)[C@H]([C@@H](C)O)NC(=O)[C@H](CSSC[C@H](NC(=O)[C@H](CC(C)C)NC(=O)[C@H](Cc3c[nH]cn3)NC(=O)[C@H](CCC(N)=O)NC(=O)[C@H](CC(N)=O)NC(=O)[C@@H](NC(=O)[C@H](Cc3ccccc3)NC(=O)CCCCC(=O)N(CC(=O)NCCO[C@@H]3O[C@H](CO)[C@@H](O)[C@H](O)[C@H]3O)CC(=O)N(CCO[C@H]3O[C@H](CO)[C@@H](O)[C@H](O)[C@@H]3O)CCO[C@H]3O[C@H](CO)[C@@H](O)[C@H](O)[C@@H]3O)C(C)C)C(=O)NCC(=O)N[C@@H](CO)C(=O)N[C@@H](Cc3c[nH]cn3)C(=O)N[C@@H](CC(C)C)C(=O)N[C@@H](C(C)C)C(=O)N[C@@H](CCC(=O)O)C(=O)N[C@@H](C)C(=O)N[C@@H](CC(C)C)C(=O)N[C@@H](Cc3ccc(O)cc3)C(=O)N[C@@H](CC(C)C)C(=O)N[C@@H](C(C)C)C(=O)N[C@H](C(=O)NCC(=O)N[C@@H](CCC(=O)O)C(=O)N[C@@H](CCCNC(=N)N)C(=O)NCC(=O)N[C@@H](Cc3ccccc3)C(=O)N[C@@H](Cc3ccccc3)C(=O)N[C@@H](Cc3ccc(O)cc3)C(=O)N[C@H](C(=O)N3CCC[C@H]3C(=O)N[C@@H](CCCCNC(=O)CCCCC(=O)N(CC(=O)NCCO[C@@H]3O[C@H](CO)[C@@H](O)[C@H](O)[C@H]3O)CC(=O)N(CCO[C@H]3O[C@H](CO)[C@@H](O)[C@H](O)[C@@H]3O)CCO[C@H]3O[C@H](CO)[C@@H](O)[C@H](O)[C@@H]3O)C(=O)N[C@H](C(=O)O)[C@@H](C)O)[C@@H](C)O)CSSC[C@@H](C(=O)N[C@@H](CC(N)=O)C(=O)O)NC(=O)[C@H](Cc3ccc(O)cc3)NC(=O)[C@H](CC(N)=O)NC(=O)[C@H](CCC(=O)O)NC(=O)[C@H](CC(C)C)NC(=O)[C@H](CCC(N)=O)NC(=O)[C@H](Cc3ccc(O)cc3)NC(=O)[C@H](CC(C)C)NC(=O)[C@H](CO)NC2=O)NC1=O)C(C)C` [IOC-63], the values for the IC50 in test [1] and in test [2] were 1.65 nM and 70.2 nM, respectively. Further, the EC50 on human IR(B) was found to be 0.63 nM.
